According to PubChem BioAssay (NCI):
“And” between values parts separate entries of the source, which are not always exact repeats. Equal entries are not always repeated.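 Protocol summary: plate cells (96-well), add compound at 5 concentrations, incubate 48 h, interpolate endpoints linearly. At the GI50, growth is halved. Definition used: TGI = concentration required for complete inhibition of growth.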

Legend:
Assay in all cases: growth of human tumour cells (NCI), 48 h
A549 NSCLC = system: A549 NSCLC
ACHN renal = system: ACHN renal
HT29 colon = system: HT29 colon
M14 melanoma = system: M14 melanoma
MALME-3M melanoma = system: MALME-3M melanoma
NCI-H460 lung = system: NCI-H460 lung
PC-3 prostate = system: PC-3 prostate
SF-295 CNS = system: SF-295 CNS
TK-10 renal = system: TK-10 renal
UO-31 renal = system: UO-31 renal

Row | Compound | GI50 (A549 NSCLC) | TGI (A549 NSCLC) [µM] | GI50 (ACHN renal) [µM] | TGI (ACHN renal) [µM] | GI50 (HT29 colon) [µM] | TGI (HT29 colon) [µM] | GI50 (M14 melanoma) [µM] | TGI (M14 melanoma) [µM] | GI50 (MALME-3M melanoma) [µM] | TGI (MALME-3M melanoma) [µM] | GI50 (NCI-H460 lung) [µM] | TGI (NCI-H460 lung) [µM] | GI50 (PC-3 prostate) [µM] | TGI (PC-3 prostate) [µM] | GI50 (SF-295 CNS) [µM] | TGI (SF-295 CNS) [µM] | GI50 (TK-10 renal) [µM] | TGI (TK-10 renal) [µM] | GI50 (UO-31 renal) [µM] | TGI (UO-31 renal) [µM]
1 | COc1c(B(O)O)cccc1-c1nc2ccc3[nH]ncc3c2c2c1CCCC2 | 2.55 µM | > 34.9 | 1.77 | 16.8 | 3.17 | 16.4 | 4.06 | 13.2 | 3.39 | 6.86 | 1.43 | 11.2 | 2.41 | 40.6 | 1.89 | 12.6 | 0.0448 | 16.4 | 0.262 | 14.3
2 | O=C1C(Cl)=C(Nc2cc(Cl)ccc2O)C(=O)N1Cc1ccccc1 | 17 µM | 36.7 | 17.2 | 31.9 | 16.4 | 59.9 | 17.1 | 33.3 | 20.7 | 37.5 | 17.7 | 34.3 | 16.3 | 32.6 | 18.3 | 38.4 | 21.4 | 42.9 | 32.7 | > 54.6
3 | Cc1nc2sc(C(=O)Nc3ccccc3)c(N)c2cc1C(O)c1ccccc1 (stereo not given) | 0.421 µM | > 100 | 0.512 | > 60.8 | 0.326 | 17.6 | 0.182 | 15.2 | 0.6 | 34.3 | 0.329 | 1.73 | 0.427 | > 71 | 0.252 | 4.29 | 6.03 | > 100 | 0.727 | > 60.9
4 | O=C(CSC(c1ccccc1)c1ccccc1)N/N=C/c1ccccc1Cl | 13.6 µM | > 57.3 | 2.18 | 25.2 | > 63.2 | > 100 | 36.8 | > 100 | 6.28 | 42.5 | 34 | > 63.2 | 14.1 | 70.1 | 15.9 | > 68.4 | 14.5 | 65.3 | 30.9 | > 100
5 | O=C(N=Nc1c(Cl)c(O)c2ccccc2c1O)C(=O)Nc1cccc(C(F)(F)F)c1 | 3.79 µM | 16.7 | 1.92 | 7.12 | 6.44 | 28 | 1.96 | 4.1 | 3.12 | 7.64 | 3.3 | 12.4 | 3 | 16.2 | 6.05 | 19.7 | 14.2 | 27.4 | 1.53 | 12.2
6 | CCC[n+]1cc2cc3c(cc2c2c1-c1cc4c(cc1C2)OCO4)OCO3 (tested in a mixture with another compound) | 2.77 µM | > 52.4 | 12.1 | 51.3 | 1.41 | 16.6 | 2.49 | 7.81 | 0.29 | 1.53 | 0.337 | 4.39 | 0.986 | 7.16 | 0.47 | 6.37 | 4.11 | 38.6 | 3.14 | 33.8
7 | COC(=O)c1c2c(c(C)[n+]([O-])c1C)C(=O)C(NCc1ccc(F)cc1)=CC2=O | 1.79 µM | 5.66 | 1.73 | 4.04 | 0.711 | > 100 | 1.21 | 2.69 | 0.187 | 0.493 | 0.792 | 5.98 | 1.79 | > 100 | 1.42 | 3 | 3.32 | 36.7 | 1.67 | 3.77
8 | CN(C)c1cc2c(Nc3ccc4c(cnn4Cc4ccccc4)c3)ncnc2cn1 | 7.49 µM | > 25 | 2.1 | > 25 | 8.98 | > 25 | 14.8 | > 25 | 12.9 | > 25 | 10.3 | > 25 | 10 | > 25 | 7.58 | > 23.1 | 0.741 | > 23.2 | 4.06 | > 18.4
9 | Cc1c(NC(=O)Nc2c(Cl)cccc2Cl)c(=O)n(-c2ccccc2)n1C |  | > 100 |  | > 100 |  | > 100 |  | > 100 |  | > 100 |  | > 100 |  | > 100 |  | > 100 |  | > 100 |  | > 100
10 | COc1cc(C2c3cc4c(cc3[C@@H](Nc3ccc([N+](=O)[O-])cc3)C3COC(=O)[C@H]23)OCO4)cc(OC)c1O (stereo not given in full) | 0.157 µM and 0.166 µM | 3.72 |  | 2.82 |  | 7.81 | 0.543 | 12.7 | 0.943 | 10.5 | 0.0658 | 2.14 |  | > 100 |  | 4.85 |  | 6.97 | 0.753 | 8.76
